Data published in US10513521B2, “Compositions and methods for inhibiting BMP” (The Brigham and Women's Hospital, Inc., priority 2014, dated 2019).
Residue numbers refer to the chain shown, from its start. pIC50: −log10 of the molar value. Several values for one entry are separate records, joined by “and”; a condition that tells them apart may be missing. Identical values can stand only once.

Columns and labels:
[1] = molecular target: ALK3 (Homo sapiens, UniProt P36894); assay: TR-FRET enzymatic ALK kinase assay, ALK3
ALK3, sequence (P36894 24-532): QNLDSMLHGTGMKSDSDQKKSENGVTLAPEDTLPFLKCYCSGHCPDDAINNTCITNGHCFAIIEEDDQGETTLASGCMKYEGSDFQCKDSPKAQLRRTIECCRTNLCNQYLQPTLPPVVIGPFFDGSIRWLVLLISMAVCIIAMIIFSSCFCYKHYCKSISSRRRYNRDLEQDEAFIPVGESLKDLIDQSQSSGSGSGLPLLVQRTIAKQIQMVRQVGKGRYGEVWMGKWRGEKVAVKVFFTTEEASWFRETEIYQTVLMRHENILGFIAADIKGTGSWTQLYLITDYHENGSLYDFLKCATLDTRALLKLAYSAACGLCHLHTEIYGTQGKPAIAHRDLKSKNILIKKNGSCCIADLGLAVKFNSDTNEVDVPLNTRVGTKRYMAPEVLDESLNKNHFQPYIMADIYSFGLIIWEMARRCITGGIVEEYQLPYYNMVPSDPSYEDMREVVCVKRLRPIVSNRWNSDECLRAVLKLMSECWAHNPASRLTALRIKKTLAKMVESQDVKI
Description: (§1) Briefly, the ALKs enzymatic assay was initiated by dispense 2.5 μl enzyme in 1× kinase reaction buffer. The assay plate was then added with compounds followed by incubation at room temperature for 10 minutes. Then 2.5 μl/well substrate was added.

[2] = molecular target: T1, ALK4 (Homo sapiens, UniProt P36896); assay: TR-FRET enzymatic ALK kinase assay, ALK4
T1 sequence (P36896 24-505): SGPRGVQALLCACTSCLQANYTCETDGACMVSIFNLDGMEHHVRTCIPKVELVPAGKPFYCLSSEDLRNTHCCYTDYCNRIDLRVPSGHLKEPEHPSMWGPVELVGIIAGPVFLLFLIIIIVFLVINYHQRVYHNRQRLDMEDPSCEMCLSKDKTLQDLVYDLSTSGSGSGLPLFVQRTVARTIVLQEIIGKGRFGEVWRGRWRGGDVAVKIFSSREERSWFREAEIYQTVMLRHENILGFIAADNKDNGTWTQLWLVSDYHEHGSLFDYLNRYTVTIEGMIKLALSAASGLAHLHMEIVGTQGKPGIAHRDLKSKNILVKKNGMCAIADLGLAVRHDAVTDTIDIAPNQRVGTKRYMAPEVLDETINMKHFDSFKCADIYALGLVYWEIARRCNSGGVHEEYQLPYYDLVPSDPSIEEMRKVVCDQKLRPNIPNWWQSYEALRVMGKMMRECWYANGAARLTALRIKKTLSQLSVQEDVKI
Description: as §1

[3] = molecular target: ALK1 (Homo sapiens, UniProt P37023); assay: TR-FRET enzymatic ALK kinase assay, ALK1
ALK1, sequence (P37023 22-503): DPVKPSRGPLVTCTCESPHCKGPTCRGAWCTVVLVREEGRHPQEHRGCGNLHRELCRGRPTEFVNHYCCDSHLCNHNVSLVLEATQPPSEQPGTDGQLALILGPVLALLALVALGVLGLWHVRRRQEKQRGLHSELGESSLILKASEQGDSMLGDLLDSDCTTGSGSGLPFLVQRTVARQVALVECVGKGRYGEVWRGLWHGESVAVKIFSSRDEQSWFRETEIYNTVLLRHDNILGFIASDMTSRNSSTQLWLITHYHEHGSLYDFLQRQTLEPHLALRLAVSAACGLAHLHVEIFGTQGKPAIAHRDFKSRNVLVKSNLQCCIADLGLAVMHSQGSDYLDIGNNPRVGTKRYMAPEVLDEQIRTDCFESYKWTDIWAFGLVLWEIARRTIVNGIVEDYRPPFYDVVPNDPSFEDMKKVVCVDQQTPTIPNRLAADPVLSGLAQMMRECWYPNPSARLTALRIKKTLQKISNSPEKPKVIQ
Description: as §1

[4] = molecular target: T2, ALK2 (Homo sapiens, UniProt Q04771); assay: TR-FRET enzymatic ALK kinase assay, ALK2
T2 sequence (Q04771 21-509): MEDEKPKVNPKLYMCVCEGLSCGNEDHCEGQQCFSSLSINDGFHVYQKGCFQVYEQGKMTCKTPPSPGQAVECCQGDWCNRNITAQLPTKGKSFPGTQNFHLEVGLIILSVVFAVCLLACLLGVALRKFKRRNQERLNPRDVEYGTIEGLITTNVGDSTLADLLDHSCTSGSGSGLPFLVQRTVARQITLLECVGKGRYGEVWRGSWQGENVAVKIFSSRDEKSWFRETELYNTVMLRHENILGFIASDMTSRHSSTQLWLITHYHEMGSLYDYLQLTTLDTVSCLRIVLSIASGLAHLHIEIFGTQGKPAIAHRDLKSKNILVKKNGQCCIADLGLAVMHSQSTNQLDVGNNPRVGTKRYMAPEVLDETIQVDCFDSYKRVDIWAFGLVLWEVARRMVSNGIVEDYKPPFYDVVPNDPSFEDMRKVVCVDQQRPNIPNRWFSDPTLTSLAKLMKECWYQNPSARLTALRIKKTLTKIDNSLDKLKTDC
Description: as §1

[5] = molecular target: T3, ALK5 (Homo sapiens, UniProt P36897); assay: TR-FRET enzymatic ALK kinase assay, ALK5
T3 sequence (P36897 34-503): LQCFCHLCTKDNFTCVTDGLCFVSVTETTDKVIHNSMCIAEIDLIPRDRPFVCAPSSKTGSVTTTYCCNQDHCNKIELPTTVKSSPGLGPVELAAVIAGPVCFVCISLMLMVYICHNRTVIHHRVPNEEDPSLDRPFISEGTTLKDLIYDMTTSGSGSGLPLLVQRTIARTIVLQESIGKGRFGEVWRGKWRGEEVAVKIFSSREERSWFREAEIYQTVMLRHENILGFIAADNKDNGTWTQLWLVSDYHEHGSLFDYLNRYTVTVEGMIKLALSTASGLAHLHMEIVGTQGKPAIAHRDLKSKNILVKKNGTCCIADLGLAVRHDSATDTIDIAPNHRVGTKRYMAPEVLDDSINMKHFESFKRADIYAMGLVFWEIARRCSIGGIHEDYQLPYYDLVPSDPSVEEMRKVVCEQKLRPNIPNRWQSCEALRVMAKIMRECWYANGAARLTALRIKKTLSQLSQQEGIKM
Description: Six ALK kinase enzyme assays were developed for determination of compound activities on ALK1, ALK2, ALK3, ALK4, ALK5 and ALK6.
as §1

[6] = molecular target: T4, ALK2 (Mus musculus, UniProt P37172); assay: In-cell Western ALK2 assay (C2C12 cells, BMP6 as agonist); type: cell-based; conditions: read-out: BMP6 ICW
T4 construct: The C2C12 cell line was selected for the measurement of ALK2 activity using BMP6 as the agonist; host or cells: C2C12
T4 sequence (P37172 21-509): T2 sequence (Q04771 21-509) with M1V, P10Q, L121I, D162E, P310S
Description: 3. In-Cell Western ALK1 and ALK2 Assays in 384-Well Plate Format.
We also optimized cell-based In-cell Western assays for measurements of ALK1 and ALK2 activities that were used to determine compound activities in these two kinases. The cell lines and agonists used were same as described in above cell-based HTRF ALK1 and ALK2 assays. The initial cell plating and compound treatment were also same. The main difference is the detection of phosphorylation status of SMAD1. In t-cell Western assay, the cells were fixed and phosphorylation status of SMAD1 was detected by the ELISA instead of using the HTRF assay kit in above assay.
HyClone Fetal Bovine Serum was obtained from GE healthcare life sciences (Logan, Utah). BMP6 and BMP9 were purchased from R&D System (R&D). Anti-P-SMAD 1/5/8 rabbit mAb and anti-rabbit IgG, HRP-Linked antibody were purchased from Cell Signaling Technology (Danvers, Mass.). BioFX Chemiluminescent Ultra-Sensitive HRP Microwell Substrate ECL Reagent was obtained from SurModics (Edina, Minn.). The compound plates and the white solid MB assay plates were from Greiner Bio-one (Monroe, N.C.).
Similarly as described in above HTRF cell-based assay, this assay was performed in 384 well plate format. […] Pre-starved cells were then plated in 384 well plate in the starvation medium (containing in 0.1% FBS). After 4 hours, compound dilutions in DMSO were added to the assay plate and incubated for 30 minutes. The assay plate was then added with BMP6 for C2C12 cells or BMP9 for BAOEC cells and incubated for 30 minutes.
The cells were washed in the plate washer with PBS and blocked with 2% BSA in PBS for 1 h at room temperature on the rotator. After removing the blocking reagent, the cells were incubated with the anti-p-SMAD1 antibody in 2% BSA in PBS for overnight at 4° C. on rotator. The cells were washed with PBS in the plate washer and incubated with HRP conjugated second antibody in 2% BSA in PBS for 1 hour at room temperature. After a cell wash with PBS, ECL detection reagent was added and the plate was read in the luminesce mode in the ViewLux plate reader.

[7] = molecular target: ALK6 (Homo sapiens, UniProt O00238); assay: TR-FRET enzymatic ALK kinase assay, ALK6
ALK6, sequence (O00238 14-502): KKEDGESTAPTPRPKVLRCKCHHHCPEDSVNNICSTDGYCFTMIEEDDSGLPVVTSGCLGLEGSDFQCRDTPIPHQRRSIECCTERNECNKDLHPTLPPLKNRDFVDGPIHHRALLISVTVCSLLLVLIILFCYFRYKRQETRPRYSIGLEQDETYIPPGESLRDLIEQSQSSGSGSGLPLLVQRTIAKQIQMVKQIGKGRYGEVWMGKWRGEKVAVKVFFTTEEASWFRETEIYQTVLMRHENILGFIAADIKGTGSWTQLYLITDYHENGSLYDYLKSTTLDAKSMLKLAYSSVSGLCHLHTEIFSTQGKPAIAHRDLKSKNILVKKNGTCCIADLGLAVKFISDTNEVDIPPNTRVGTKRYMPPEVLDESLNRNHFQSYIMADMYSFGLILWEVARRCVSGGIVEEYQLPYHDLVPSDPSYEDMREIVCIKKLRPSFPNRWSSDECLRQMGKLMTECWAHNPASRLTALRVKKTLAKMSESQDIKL
Description: as §1

[8] = molecular target: T4, ALK2; assay: HTRF pSMAD1 cell-based ALK2 assay (C2C12 cells, BMP6 as agonist); conditions: cell-based assay, BMP6; read-out: Cell IC50 BMP6
Method in brief: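 Cells pre-starved, plated in 0.1% FBS medium for 4 h, compound added for 30 min, then stimulated 30 min with BMP9 (BAOEC) or BMP6 (C2C12). Phospho-SMAD1 measured by HTRF after overnight room-temperature detection incubation.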

[9] = Cell-based assay, TGFb1 (Cell IC50)

Row | Compound | pIC50 [1] | pIC50 [2] | pIC50 [3] | pIC50 [4] | pIC50 [5] | pIC50 [6] | pIC50 [7] | pIC50 [8] | pIC50 [9]
1 | CN1CCC(c2ccc(-c3cnc4c(-c5cccc(C(C)(C)O)c5)cnn4c3)cc2)CC1 [Compound 92, 2-(3-(6-(4-(1-methylpiperidin-4-yl)phenyl)pyrazolo[1,5-a]pyrimidin-3-yl)phenyl)propan-2-ol] | 5.80 | < 5.00 | 7.04 | 7.59 | < 5.00 | – | < 5.00 | 6.58 | 4.77
2 | C[C@@H]1CNC[C@H](C)N1c1ccc(-c2cnc3c(-c4ccc(F)c(C#N)c4)cnn3c2)cc1 [Compound 84, 5-(6-(4-((2R,6S)-2,6-dimethylpiperazin-1-yl)phenyl)pyrazolo[1,5-a]pyrimidin-3-yl)-2-fluorobenzonitrile] | < 5.00 | < 5.00 | 6.07 | 6.92 | < 5.00 | – | < 5.00 | 5.68 | 5.00
3 | CC(=O)c1cccc2c(-c3cnn4cc(-c5ccc(N6[C@H](C)CNC[C@@H]6C)cc5)cnc34)cccc12 [Compound 24, 1-(5-(6-(4-((2R,6S)-2,6-dimethylpiperazin-1-yl)phenyl)pyrazolo[1,5-a]pyrimidin-3-yl)naphthalen-1-yl)ethanone] | 7.23 | 5.84 | 6.97 | 7.52 | 4.57 | – | 6.52 | 6.48 | 6.24
4 | C[C@@H]1CNC[C@H](C)N1c1ccc(-c2cnc3c(-c4ccc(C#N)c5ccccc45)cnn3c2)cc1 [Compound 19, 4-(6-(4-((2R,6S)-2,6-dimethylpiperazin-1-yl)phenyl)pyrazolo[1,5-a]pyrimidin-3-yl)-1-naphthonitrile] | 5.96 | 5.32 | 6.24 | 7.03 | 3.82 | – | 5.01 | 7.36 | 5.35
5 | CC(O)c1cccc(-c2cnn3cc(-c4ccc(CCN5CCCCC5)cc4)cnc23)c1 (stereo not drawn) [Compound 97, 1-(3-(6-(4-(2-(piperidin-1-yl)ethyl)phenyl)pyrazolo[1,5-a]pyrimidin-3-yl)phenyl)ethanol] | 5.52 | < 5.00 | 6.29 | 7.00 | < 5.00 | – | < 5.00 | 5.94 | 8.92
6 | CNS(=O)(=O)c1cccc(-c2cnn3cc(-c4ccc(N5[C@H](C)CNC[C@@H]5C)cc4)cnc23)c1 [Compound 76, 3-(6-(4-((2R,6S)-2,6-dimethylpiperazin-1-yl)phenyl)pyrazolo[1,5-a]pyrimidin-3-yl)-N-methylbenzenesulfonamide] | 6.05 | 5.32 | 7.24 | 7.70 | < 5.00 | – | < 5.00 | 7.17 | 6.10
7 | NC(=O)c1cccc2c(-c3cnn4cc(-c5ccc(N6CCNCC6)cc5)cnc34)cccc12 [Compound 6, 5-(6-(4-(piperazin-1-yl)phenyl)pyrazolo[1,5-a]pyrimidin-3-yl)-1-naphthamide] | 7.52 | 5.57 | 7.51 | 8.15 | 4.95 | – | 6.98 | 7.68 | 6.12

Results, then the molecule that gave them:

Row | pIC50 [1] | pIC50 [2] | pIC50 [3] | pIC50 [4] | pIC50 [5] | pIC50 [6] | pIC50 [7] | pIC50 [8] | pIC50 [9] | Compound
8 | < 5.00 | < 5.00 | 6.31 | 7.20 | < 5.00 | 6.24 and 6.82 | < 5.00 | – | – | CS(=O)(=O)c1cccc(-c2cnn3cc(-c4ccc(C5CCNC5)cc4)cnc23)c1 (stereo not drawn) [Compound 129, 3-(3-(methylsulfonyl)phenyl)-6-(4-(pyrrolidin-3-yl)phenyl)pyrazolo[1,5-a]pyrimidine]
9 | < 5.00 | < 5.00 | 6.60 | 7.12 | < 5.00 | 6.82 and 6.60 | < 5.00 | – | – | CS(=O)(=O)c1cccc(-c2cnn3cc(-c4ccc(C5CCCCN5)cc4)cnc23)c1 (stereo not drawn) [Compound 137, 3-(3-(methylsulfonyl)phenyl)-6-(4-(piperidin-2-yl)phenyl)pyrazolo[1,5-a]pyrimidine]
10 | 5.66 | < 5.00 | 6.60 | 7.37 | < 5.00 | – | < 5.00 | 6.29 | 4.34 | CC(C)(O)c1cccc(-c2cnn3cc(-c4ccc(CCN5CCCCC5)cc4)cnc23)c1 [Compound 99, 2-(3-(6-(4-(2-(piperidin-1-yl)ethyl)phenyl)pyrazolo[1,5-a]pyrimidin-3-yl)phenyl)propan-2-ol]
